Measured values taken from the supplement of paper PMC6045584.
± gives the standard deviation of the averaged measurements.

Compound: O=C(O)CC[C@H]1CC[C@@](c2cc(F)ccc2F)(S(=O)(=O)c2ccc(Cl)cc2)CC1 [MK0752]
Assay: surviving fraction relative to DMSO-only wells; higher = less growth inhibition
Details: 0.5 nM; exposure time: 5 days
In short: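 Log-phase tumour cell lines were seeded at 250–500 cells per well in 384-well plates. After 24 hours they were exposed continuously for five days to inhibitors at 0.5, 1, 5, 10, 50, 100, 500 and 1000 nM. Viability was read by CellTiter-Glo luminescence after 10 minutes at room temperature, and surviving fraction is luminescence normalised to the median of DMSO-only wells. Each line was screened three times and kept only if replicate Pearson r >0.7 and median Z' >0.3.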

Q: With C33A CERVIX as the test system, how does the surviving fraction read?
A: 1.12 ± 0.13

Q: With CAL72 BONE as the test system, how does the surviving fraction read?
A: 1.04 ± 0.025

Q: With G292 BONE as the test system, how does the surviving fraction read?
A: 0.974 ± 0.015

Q: HCC1395 BREAST was tested. Which surviving fraction did it give?
A: 1.09 ± 0.017

Q: Which surviving fraction does the source give for HUO3N1 BONE here?
A: 1.02 ± 0.023

Q: Which surviving fraction does the source give for LNCAP PROSTATE here?
A: 0.936 ± 0.14

Q: How did the surviving fraction turn out when SCC003 HEADNECK was run?
A: 1.19 ± 0.02

Same assay, conditions: 1 nM; exposure time: 5 days

Q: How did the surviving fraction turn out when C33A CERVIX was run?
A: 1.11 ± 0.08

Q: With CAL72 BONE as the test system, how does the surviving fraction read?
A: 1.1 ± 0.043

Q: With G292 BONE as the test system, how does the surviving fraction read?
A: 1.03 ± 0.053

Q: HCC1395 BREAST was tested. Which surviving fraction did it give?
A: 0.987 ± 0.16

Q: With HUO3N1 BONE as the test system, how does the surviving fraction read?
A: 1.03 ± 0.021

Q: LNCAP PROSTATE was tested. Which surviving fraction did it give?
A: 0.927 ± 0.12

Q: For SCC003 HEADNECK, which surviving fraction is on record?
A: 1.12 ± 0.15

Same assay, conditions: 5 nM; exposure time: 5 days

Q: With C33A CERVIX as the test system, how does the surviving fraction read?
A: 1.06 ± 0.14

Q: CAL72 BONE was tested. Which surviving fraction did it give?
A: 1.084 ± 0.0046

Q: How did the surviving fraction turn out when G292 BONE was run?
A: 1.05 ± 0.033

Q: How did the surviving fraction turn out when HCC1395 BREAST was run?
A: 1.08 ± 0.036

Q: With HUO3N1 BONE as the test system, how does the surviving fraction read?
A: 1.051 ± 0.0083

Q: Which surviving fraction does the source give for LNCAP PROSTATE here?
A: 1.03 ± 0.26

Q: Which surviving fraction does the source give for SCC003 HEADNECK here?
A: 1.14 ± 0.045

Same assay, conditions: 10 nM; exposure time: 5 days

Q: How did the surviving fraction turn out when C33A CERVIX was run?
A: 1.19 ± 0.083

Q: With CAL72 BONE as the test system, how does the surviving fraction read?
A: 1.09 ± 0.021

Q: Which surviving fraction does the source give for G292 BONE here?
A: 1.05 ± 0.013

Q: For HCC1395 BREAST, which surviving fraction is on record?
A: 1.1 ± 0.099

Q: Which surviving fraction does the source give for HUO3N1 BONE here?
A: 1.08 ± 0.042

Q: How did the surviving fraction turn out when LNCAP PROSTATE was run?
A: 0.887 ± 0.09

Q: Which surviving fraction does the source give for SCC003 HEADNECK here?
A: 1.13 ± 0.055

Same assay, conditions: 50 nM; exposure time: 5 days

Q: With C33A CERVIX as the test system, how does the surviving fraction read?
A: 1.09 ± 0.066

Q: Which surviving fraction does the source give for CAL72 BONE here?
A: 1.11 ± 0.018

Q: With G292 BONE as the test system, how does the surviving fraction read?
A: 1.01 ± 0.018

Q: For HCC1395 BREAST, which surviving fraction is on record?
A: 1.06 ± 0.011

Q: HUO3N1 BONE was tested. Which surviving fraction did it give?
A: 1.07 ± 0.042

Q: For LNCAP PROSTATE, which surviving fraction is on record?
A: 1.01 ± 0.098

Q: SCC003 HEADNECK was tested. Which surviving fraction did it give?
A: 1.19 ± 0.12

Same assay, conditions: 100 nM; exposure time: 5 days

Q: Which surviving fraction does the source give for C33A CERVIX here?
A: 1.19 ± 0.18

Q: For CAL72 BONE, which surviving fraction is on record?
A: 1.14 ± 0.034

Q: How did the surviving fraction turn out when G292 BONE was run?
A: 0.989 ± 0.019

Q: For HCC1395 BREAST, which surviving fraction is on record?
A: 1.06 ± 0.15

Q: With HUO3N1 BONE as the test system, how does the surviving fraction read?
A: 1.08 ± 0.052

Q: How did the surviving fraction turn out when LNCAP PROSTATE was run?
A: 1.02 ± 0.074

Q: For SCC003 HEADNECK, which surviving fraction is on record?
A: 1.24 ± 0.11

Same assay, conditions: 500 nM; exposure time: 5 days

Q: For C33A CERVIX, which surviving fraction is on record?
A: 1.08 ± 0.16

Q: CAL72 BONE was tested. Which surviving fraction did it give?
A: 1.102 ± 0.011

Q: Which surviving fraction does the source give for G292 BONE here?
A: 0.914 ± 0.037

Q: HCC1395 BREAST was tested. Which surviving fraction did it give?
A: 0.975 ± 0.028

Q: HUO3N1 BONE was tested. Which surviving fraction did it give?
A: 1.01 ± 0.02

Q: How did the surviving fraction turn out when LNCAP PROSTATE was run?
A: 1.04 ± 0.21

Q: How did the surviving fraction turn out when SCC003 HEADNECK was run?
A: 1.19 ± 0.13

Same assay, conditions: 1000 nM; exposure time: 5 days

Q: With C33A CERVIX as the test system, how does the surviving fraction read?
A: 1.13 ± 0.1

Q: How did the surviving fraction turn out when CAL72 BONE was run?
A: 1.12 ± 0.04

Q: How did the surviving fraction turn out when G292 BONE was run?
A: 0.86 ± 0.037

Q: For HCC1395 BREAST, which surviving fraction is on record?
A: 0.925 ± 0.12

Q: For HUO3N1 BONE, which surviving fraction is on record?
A: 0.9563 ± 0.0042

Q: How did the surviving fraction turn out when LNCAP PROSTATE was run?
A: 1.01 ± 0.12

Q: How did the surviving fraction turn out when SCC003 HEADNECK was run?
A: 1.2 ± 0.039

Compound: COc1cc([C@@H]2c3cc4c(cc3[C@@H](O[C@@H]3O[C@@H]5CO[C@@H](C)O[C@H]5[C@H](O)[C@H]3O)[C@H]3COC(=O)[C@H]23)OCO4)cc(OC)c1O [ETOPOSIDE]
Assay: area under dose-response curve of surviving fraction (unscaled, Aref=0) (surviving fraction x log10(nM)); higher = more resistant
Details: exposure time: 5 days; dose range 0.5-1000 nM
In short: (§1)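 Surviving fractions were fitted by 3-parameter logistic regression in the drc R package to give dose-response survival curves. They came from tumour cell lines treated for five days with eight inhibitor concentrations from 0.5 to 1000 nM and read by CellTiter-Glo luminescence against DMSO-only wells. The area under the curve is the unscaled activity area. It was calculated over log10 dose with Aref = 0.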

Q: C33A CERVIX was tested. Which “area under dose-response curve” value did it give?
A: 2.61

Q: For CAL72 BONE, which “area under dose-response curve” value is on record?
A: 3.1

Q: With G292 BONE as the test system, how does the “area under dose-response curve” value read?
A: 2.76

Q: Which “area under dose-response curve” value does the source give for HCC1395 BREAST here?
A: 3.25

Q: Which “area under dose-response curve” value does the source give for HUO3N1 BONE here?
A: 2.97

Q: LNCAP PROSTATE was tested. Which “area under dose-response curve” value did it give?
A: 2.68

Compound: O=C(NOCC1CC1)c1ccc(F)c(F)c1Nc1ccc(I)cc1Cl
Assay: as above
Details: exposure time: 5 days; dose range 0.5-1000 nM
In short: as §1

Q: Which “area under dose-response curve” value does the source give for C33A CERVIX here?
A: 2.3
